Measurements as given in patent US8530435B2, “Brassinosteroids in treating prostatic hyperplasia and androgenic alopecia” (Grasses of Eden Ltd., priority 2008, dated 2013).

Legend:
[1] = tested on: Salmonella typhimurium TA 1534, TA 1537, TA 1950, TA 98, TA 100; settings: with or without metabolic activation; cited from earlier work
[2] = tested on: Tetrahymena pyriformis; settings: over seven generations; cited from earlier work
[3] = tested on: skin; settings: in vivo; cited from earlier work
[4] = tested on: mice; settings: orally, mice (female); cited from earlier work
[5] = tested on: mice CBAB1/6; settings: cited from earlier work
[6] = cited from earlier work
[7] = tested on: human genital skin 5αR; test: 5α-reductase activity: reduction of testosterone to DHT in human foreskin tissue enzyme mixture, HPLC; type: biochemical; settings: for Activity (% of control) / DHT/testosterone (final): initial testosterone 0.34 mM; for DHT/testosterone (final): control 0.1562
Description: 5α-reductase activity of soluble enzyme was measured by the reduction of testosterone at 37° C. during 40 min in a 3-ml enzyme mixture of human foreskin tissue or Bos taurus (Bovine) prostatic tissues, containing NADPH, with and without the test compound in parallel with analytical Ventranal standards for Testosterone and DHT. Tissue preparation and enzyme incubations were performed in accordance with Moore et al. (see below) with modifications. All steps were carried out at 4° C. Prostate or foreskin tissue was dissected and homogenized in ice-cold homogenization phosphate buffer at pH 8.0. The homogenate was centrifuged and the resulting cell free supernatant was stored in aliquots at −80° C. Inhibition of the steroid 5α-reductase was measured by incubating the enzyme and testosterone in the presence of a plant extract or a natural compound. […] The ratio of the peak areas gave quantitative measure of the inhibition [Neeman I. et al.: Urol.
The activity of 5α-reductase (EC: 1.3.99.5) was checked in human foreskin tissue and in bovine prostatic tissues. Pure compound and plant extracts were tested for their 5α-reductase inhibition activity, in various experiments.

[8] = tested on: mucous membranes of rabbits' eyes; settings: concentrations of 0.2%; cited from earlier work
[9] = tested on: fish; settings: in vivo; cited from earlier work
[10] = tested on: rats; settings: cited from earlier work

Compound | Ames test for mutagenic activity [1] | genetic safety / mutagenic activity [2] | skin irritation [3] | LD50 [4] | spontaneous mutations in micronuclear or chromosome abberation tests [5] | toxicity and cumulative effect ([6]; acute, subacute, and chronic experiments) | adaptogenic effect (increasing adaptive ability of the population) ([6]; prolonged experiments) | toxicity ([6]; prolonged experiments) | human skin reductase activity inhibited ([7]; as in Table 1 (10^−7M)) | Activity (% of control) ([7]; inhibitor 10^−7M) | DHT/testosterone (final) ([7]; inhibitor 10^−7M) | irritation of mucous membranes of eyes [8] | fish toxicity [9] | stimulative and toxico-protective properties in fish [9] | LD50 ([10]; orally and dermally, rats (male/female)) | Dermal toxicity ([10]; rat, in vivo) | Activity (% of control) ([7]; inhibitor 10^−6M) | DHT/testosterone (final) ([7]; inhibitor 10^−6M)
CC(C)[C@@H](C)[C@@H](O)[C@H](O)[C@@H](C)[C@H]1CC[C@H]2[C@@H]3COC(=O)[C@H]4C[C@H](O)[C@H](O)C[C@]4(C)[C@H]3CC[C@]12C [Epibrassinolide-24] | negative | absence of mutagenic activity | did not irritate the skin | more than 1000 mg/kg | neither epibrassinolide-24 nor the liquid formulation caused spontaneous mutations | low toxicity and very little cumulative effect | pronounced adaptogenic effect | no toxicity | 74% | 25.9 % of control | 0.0404 | did not irritate | no negative effects | pronounced stimulative and toxico-protective properties | more than 2000 mg/kg | more than 2000 mg/kg | – | –
CC(C)(C)NC(=O)[C@H]1CC[C@H]2[C@@H]3CC[C@H]4NC(=O)C=C[C@]4(C)[C@H]3CC[C@]12C [Finasteride, reference compound] | – | – | – | – | – | – | – | – | – | – | – | – | – | – | – | – | 32.7 % of control | 0.0607
